Data set [1] has as its system Methacholine-induced airway reactivity. As to the kind of experiment: Mouse model of asthma: methacholine-induced airway reactivity (Penh) in ovalbumin-sensitized and challenged mice. The class given is in vivo. As to conditions: % inhibition of the PenH vs McH dose AUC compared with vehicle control; for inhibition in vivo at 50 mg/kg: Mus musculus, po, 768 h, 50 mg/kg p.o., dosed days 26-32, measured day 32, ovalbumin-sensitized male Balb/CJ mice, read-out: Reduction of Penh AUC at 50 mg/kg p.o. On the procedure: Male 5-6 week old Balb/CJ mice were obtained from Jackson Laboratories (Bar Harbor, Me.). All experimental animals were used in accordance to Institutional Animal Care and Use Committee of AtheroGenics, Inc. Mice were sensitized by administering an intraperitoneal injection of 20 μg of ovalbumin (Calbiochem, La Jolla, Calif.) adsorbed in 2 mg of alum (Imject Alum; Pierce, Rockford, Ill.) on day 0 and 14. A group of mice received saline and served as negative control animals. The mice were challenged by aerosol exposure to ovalbumin (1% [wt/vol]) for 25 minutes on 3 consecutive days (days 28, 29, and 30) in a plexiglass exposure chamber coupled to an Aeroneb nebulizer (Buxco Electronics, Wilmington, N.C.). Experimental compounds were dissolved in Glycofurol/PEG 300/Tween (35%/55%/10%) (Sigma-Aldrich; Milwaukee, Wis.). Animals were dosed orally with either test compound or vehicle (6 ml/kg dosing volume) on days 26-32 of study. Compound or vehicle was administered 2 hour before the aerosol challenge on days 28, 29, and 30 and 1 hour before airway reactivity measurement on day 32.
Methacholine-induced airway reactivity was assessed on day 32. Methacholine was administered in increasing concentrations ([…], 1.5, 3, 6, 12, 25, and 50 mg/ml) to unrestrained mice. Increases in airway resistance to Methacholine were determined as enhanced pause, (Penh) values, during and after the exposure (6-minute total analysis time). Mice were then humanely euthanized with an overdose of ketamine/xylazine and plasma samples collected for determination of drug levels. The data is presented as the % inhibition of the PenH vs McH dose AUC compared with the vehicle control.
Data analysis was conducting using the software package, JMP (SAS Institute Inc; Cary, N.C.). The Dunnett's multiple comparison test was used to compare treatment group means to the vehicle control group. P values of less than 0.05 were considered statistically significant. The data (Table 1) is presented as the % inhibition of the PenH vs McH dose AUC compared with the vehicle control.

The structures appear in SMILES notation. Counter-ions that a name gives are not always drawn.

This note sets out measurements from patent US7897776B2, “Sulfonamide containing compounds for treatment of inflammatory disorders” (Salutria Pharmaceuticals LLC, priority 2007, dated 2011).

Regarding `Cn1c(C(=O)O)ccc1S(=O)(=O)N1CCC(CCO)(Sc2cc(C(C)(C)C)c(O)c(C(C)(C)C)c2)CC1` [Example 1, 5-[4-(3,5-Di-tert-butyl-4-hydroxy-phenylsulfanyl)-4-(2-hydroxy-ethyl)-piperidine-1-sulfonyl]-1-methyl-1H-pyrrole-2-carboxylic acid], in data set [1], the inhibition in vivo at 50 mg/kg was under 20%.
In general, melting point refers to the temperature, or range, at which the solid turns liquid. Regarding `Cn1c(CO)ccc1S(=O)(=O)N1CCC(CCO)(Sc2cc(C(C)(C)C)c(O)c(C(C)(C)C)c2)CC1` [Example 2, 2,6-Di-tert-butyl-4-[4-(2-hydroxy-ethyl)-1-(5-hydroxymethyl-1-methyl-1H-pyrrole-2-sulfonyl)-piperidin-4-ylsulfanyl]-phenol], the melting point lay within 126 to 127 °C. For the same molecule, the inhibition in vivo at 50 mg/kg in data set [1] is over 40%.
Regarding `Cc1[nH]c(C(=O)O)c(C)c1S(=O)(=O)N1CCC(Sc2cc(C(C)(C)C)c(O)c(C(C)(C)C)c2)CC1` [Example 3, 4-[4-(3,5-Di-tert-butyl-4-hydroxy-phenylsulfanyl)-piperidine-1-sulfonyl]-3,5-dimethyl-1H-pyrrole-2-carboxylic acid], the inhibition in vivo at 50 mg/kg in data set [1] was 20 to 40%.
For `Cn1c(C(=O)O)ccc1S(=O)(=O)N1CCC(Sc2cc(C(C)(C)C)c(O)c(C(C)(C)C)c2)CC1` [Example 4, 5-[4-(3,5-Di-tert-butyl-4-hydroxy-phenylsulfanyl)-piperidine-1-sulfonyl]-1-methyl-1H-pyrrole-2-carboxylic acid], the inhibition in vivo at 50 mg/kg in data set [1] was over 40%.
The molecule `Cn1c(CO)ccc1S(=O)(=O)N1CCC(Sc2cc(C(C)(C)C)c(O)c(C(C)(C)C)c2)CC1` [Example 5, 2,6-Di-tert-butyl-4-[1-(5-hydroxymethyl-1-methyl-1H-pyrrole-2-sulfonyl)-piperidin-4-ylsulfanyl]-phenol] registered a melting point of 64 to 65 °C. Also, the inhibition in vivo at 50 mg/kg in data set [1] was over 40%.
Turning to `Cn1c(C(=O)O)ccc1S(=O)(=O)N1CCC(Sc2cc(C(C)(C)C)c(OCCCO)c(C(C)(C)C)c2)CC1` [Example 6, 5-{4-[3,5-Di-tert-butyl-4-(3-hydroxy-propoxy)-phenylsulfanyl]-piperidine-1-sulfonyl}-1-methyl-1H-pyrrole-2-carboxylic acid], in data set [1], the inhibition in vivo at 50 mg/kg was under 20%.
Take `Cn1c(C(=O)O)ccc1S(=O)(=O)N1CCC([S+]([O-])c2cc(C(C)(C)C)c(O)c(C(C)(C)C)c2)CC1` (stereo not shown) [Example 7, 5-[4-(3,5-Di-tert-butyl-4-hydroxy-benzenesulfinyl)-piperidine-1-sulfonyl]-1-methyl-1H-pyrrole-2-carboxylic acid]: in data set [1], the inhibition in vivo at 50 mg/kg is 20 to 40%.
`CC(C)(C)c1cc(SC2CCN(S(=O)(=O)c3ncc(C(=O)O)[nH]3)CC2)cc(C(C)(C)C)c1O` [Example 8, 2-[4-(3,5-Di-tert-butyl-4-hydroxy-phenylsulfanyl)-piperidine-1-sulfonyl]-3H-imidazole-4-carboxylic acid]: the inhibition in vivo at 50 mg/kg in data set [1] lay within 20 to 40%.
`CC(C)(C)c1cc(SC2CCN(S(=O)(=O)c3ncc(CO)[nH]3)CC2)cc(C(C)(C)C)c1O` [Example 9, 2,6-Di-tert-butyl-4-[1-(5-hydroxymethyl-1H-imidazole-2-sulfonyl)-piperidin-4-ylsulfanyl]-phenol] returned a melting point of 122 to 123 °C. Also, in data set [1], the inhibition in vivo at 50 mg/kg lay in the range of 20 to 40%.
As for `CC(C)(C)c1cc(SC2CCN(S(=O)(=O)c3ncc(C(C)(C)O)[nH]3)CC2)cc(C(C)(C)C)c1O` [Example 12, 2,6-Di-tert-butyl-4-{1-[5-(1-hydroxy-1-methyl-ethyl)-1H-imidazole-2-sulfonyl]-piperidin-4-ylsulfanyl}-phenol], the inhibition in vivo at 50 mg/kg in data set [1] is under 20%.
Turning to `Cn1c(C(=O)O)ccc1S(=O)(=O)N1CC[C@@H](Sc2cc(C(C)(C)C)c(O)c(C(C)(C)C)c2)C1` [Example 13, (R)-5-[3-(3,5-Di-tert-butyl-4-hydroxy-phenylsulfanyl)-pyrrolidine-1-sulfonyl]-1-methyl-1H-pyrrole-2-carboxylic acid], in data set [1], the inhibition in vivo at 50 mg/kg was under 20%.
As for `Cn1c(C(=O)O)ccc1S(=O)(=O)N1CC[C@H](Sc2cc(C(C)(C)C)c(O)c(C(C)(C)C)c2)C1` [Example 14, (S)-5-[3-(3,5-Di-tert-butyl-4-hydroxy-phenylsulfanyl)-pyrrolidine-1-sulfonyl]-1-methyl-1H-pyrrole-2-carboxylic acid], the inhibition in vivo at 50 mg/kg in data set [1] is under 20%.
For the molecule `Cn1c(CO)ccc1S(=O)(=O)N1CC[C@H](Sc2cc(C(C)(C)C)c(O)c(C(C)(C)C)c2)C1` [Example 15, (S)-2,6-Di-tert-butyl-4-[1-(5-hydroxymethyl-1-methyl-1H-pyrrole-2-sulfonyl)-pyrrolidin-3-ylsulfanyl]-phenol], the melting point was in the range of 68 to 70 °C. Moreover, in data set [1], the inhibition in vivo at 50 mg/kg is under 20%.
As for `Cn1c(C(=O)O)ccc1S(=O)(=O)N1CCC(Sc2cc(C(C)(C)C)c(O)c(C(C)(C)C)c2)CC1` [Example 16, 5-[4-(3,5-Di-tert-butyl-4-hydroxy-phenylsulfanyl)-piperidine-1-sulfonyl]-1-methyl-1H-pyrrole-2-carboxylic acid L-arginine salt], the inhibition in vivo at 50 mg/kg in data set [1] is under 20%.
For the molecule `Cn1c(C(=O)O)ccc1S(=O)(=O)N1CCC(Sc2cc(C(C)(C)C)c(O)c(C(C)(C)C)c2)CC1` [Example 18, 5-[4-(3,5-Di-tert-butyl-4-hydroxy-phenylsulfanyl)-piperidine-1-sulfonyl]-1-methyl-1H-pyrrole-2-carboxylic acid tris(hydroxymethyl)aminomethane (THAM) Salt], in data set [1] (dosed days 26-32, measured day 32, ovalbumin-sensitized male Balb/CJ mice, 50 mg/kg), the “Reduction of Penh AUC at 50 mg/kg p.o.” value is 1 (>40% and statistically significant).
